Consider two compounds from US7998460B2, “Prevention of deficits in neurogenesis with anti-inflammatory agents” (The Board of Trustees of the Leland Stanford Junior …, priority 2003, dated 2011).

By mortality is commonly meant the share of the test organisms that died.

Data set [1] has as its system hippocampal neurogenesis. As to the kind of experiment: 10 Gy cranial X-irradiation, microglial inflammation and hippocampal neurogenesis at 2 months. It is filed as in vivo, rat. Here is the method: Because rats are more radio resistant than humans, 10 Gy approximates a clinically relevant dose and is below the threshold to cause demyelination or overt vasculopathy in rats. This dose of X-irradiation was previously shown to spare roughly 30% of the NPC proliferative activity but completely ablate the production of neurons. X-irradiation was limited to a 1.5 cm cylinder centered over the cranium (remaining body parts were shielded). One month later, BrdU was administered systemically and at 2 months post-irradiation, brain tissues were analyzed for hippocampal neurogenesis.
(§1) Control animals were given either vehicle (5% bicarbonate) injections i.p. or plain dog food. To ensure complete consumption of food and medication in the 2 month paradigm, rats were restricted to 80% of their ad lib intake.
Irradiation Adult female Fisher 344 rats were anesthetized with ketamine and xylazine and exposed to cranial irradiation using a Philips orthovoltage X-ray system operated at 200 kVp and 20 mA. A single dose of 10 Gy was delivered to the cranium of each rat with shielding of the body, neck, eyes and snout. Dosimetry was done using TLD dosimeters (K & S Associates, Nashville, Tenn.) buried in the hippocampi, cerebellum, mouth, eyes and ears of euthanized rats. The corrected dose rate was approximately 44.5 cGy/minute. Sham-irradiated controls for all experiments received anesthesia only.
BrdU injections and tissue preparation. Animals were injected intraperitoneally with BrdU once each day for 6 days. Animals were then anesthetized and sacrificed on the 28th day after the initial BrdU injection by transcardial perfusion with 4% paraformaldehyde. Brains were removed and postfixed overnight and then equilibrated in phosphate buffered 30% sucrose. Free floating 40 μm sections were collected on a freezing microtome and stored in cryoprotectant as previously described.
Immunocytochemistry and immunofluorescent staining. […]
Cell counting and unbiased stereology. […] The proportion of BrdU cells displaying a lineage-specific phenotype was determined by scoring the co-localization of cell phenotype markers with BrdU using confocal microscopy. […] When possible, 100 or more BrdU-positive cells were scored for each marker per animal. Each cell was manually examined in its full “z”-dimension and only those cells for which the nucleus was unambiguously associated with the lineage-specific marker were scored as positive. The total number of BrdU-labeled cells per hippocampal granule cell layer and subgranule zone was determined using diaminobenzadine stained tissues. In a separate series, the total number of ED1-labeled cells per dentate gyrus was also determined using diaminobenzadine stained tissue. Stained BrdU-positive nuclei or ED1-positive cells were scored under light microscopy using Microbrightfield Stereo Investigator software and the Fractionator method. Overestimation was corrected using the Abercrombie method for nuclei with empirically determined average diameter of 13 μm within a 40 μm section.

A short description of data set [2]: Mortality with indomethacin in mice. The class given is in vivo, mouse. To be noted: higher dose (5 mg/kg BID). From the text:
The propensity of NSAIDs to induce ulceration and bleeding often outweigh the anti-inflammatory benefits. […] NSAIDs that more selectively target Cox-2, such as roficoxib and celecoxib, are well tolerated and have been widely used as alternatives to broad spectrum NSAIDs for controlling inflammation. In addition, the selective agonism of PPAR-γ is an effective anti-inflammatory strategy, e.g., through administration of thiazolidinediones such as rosiglitazone or pioglitizone. […] Mice were started on a 16 day preventative course of oral NSAID and then challenged with a single IP injection of LPS (5 mg/kg) and then BrdU (50 mg/kg) over 6 days beginning 2 h after LPS. The mice were either perfused 28 days after LPS injection, or trained and tested in the Morris water maze.
NSAID treatment. One half of the saline- and LPS-treated mice were fed non-steroidal anti-inflammatory drug (NSAID), in low fat strawberry milk, twice per day for two weeks following LPS injection (Days 0-13). The mice were initially introduced to low fat strawberry milk (Berkeley Farms, Calif.; 200 μl per animal) in their home cages, four days before LPS was injected (Days […]) and were then placed in a PVC tube (10-cm diameter×18-cm height), twice per day (12 h apart) beginning two days before LPS was injected (Days −2 and −1) until they consumed a 100 μl volume of low fat strawberry milk. […]

In data set [3] the test system is hippocampal neurogenesis. As to the kind of experiment: LPS-induced systemic inflammation, hippocampal neurogenesis, one-week BrdU labeling paradigm. The class given is in vivo, rat. Here is the method:
To determine the effects of inflammation on adult hippocampal neurogenesis, bacterial lipopolysaccharide (LPS) was injected into adult female rats to induce systemic inflammation. The intraperitoneal administration of LPS causes a peripheral inflammatory cascade that is transduced to the brain via IL-1β from the cerebral vasculature and causes a strong upregulation of central pro-inflammatory cytokine production. Following LPS exposure, rats were treated systemically with bromo-deoxyuridine (BrdU) for 6 days to label proliferating cells within the hippocampus. Animals were then sacrificed on the 7th day. The fate of the BrdU-labeled, proliferative cells was analyzed with immuno-fluorescent staining and confocal microscopy.
as §1
LPS exposure. Bacterial lipopolysaccharide (LPS, Sigma, St Louis, Mo.) was administered in sterile saline by intraperitoneal injection at a dose of 1 mg/Kg one time. This caused mild sickness behavior (decreased grooming, decreased locomotor activity, increased piloerection) for approximately 2 days, resolving by the 3rd day. The dose of LPS chosen causes mild sickness behavior in rats that resolves within 1-2 days; the dose of LPS used to induce endotoxic shock is 10-fold higher than that used in the present study.
Immunocytochemistry and immunofluorescent staining. Free floating sections were immunostained as previously described using the following primary antibodies and working concentrations: mouse anti-NeuN (1:4, gift from R. Mullen); guinea pig-anti GFAP (1:800, Harlan, Indianapolis, Ind.); mouse anti-type III βtubulin (Tuj-1, 1:500, Berkeley Antibody Co., Richmond, Calif.); rabbit anti-NG2 (1:200, Chemicon, Temecula, Calif.); mouse anti-rat CD11b (1:200, Serotec, Oxford, U.K.); mouse anti-ED-1 (1:100, Research Diagnostics Inc., Flanders, N.J.); biotinylated-Lycopersicon esculentum (tomato) lectin (1:200, Vector, Burlingame, Calif.).
Confocal microscopy. All confocal microscopy was performed using a Zeiss 510 confocal microscope. Appropriate gain and black level settings were determined on control tissues stained with secondary antibodies alone. Upper and lower thresholds were always set using the range indicator function to minimize data loss through saturation.
Cell counting and unbiased stereology. All counts were limited to the hippocampal granule cell layer proper and a 50 μm border along the hilar margin that included the neurogenic subgranule zone. The proportion of BrdU cells displaying a lineage-specific phenotype was determined by scoring the co-localization of cell phenotype markers with BrdU using confocal microscopy. Split panel and z-axis analysis were used for all counting. All counts were performed using multi-channel configuration with a 40× objective and electronic zoom of 2. When possible, 100 or more BrdU-positive cells were scored for each marker per animal. Each cell was manually examined in its full “z”-dimension and only those cells for which the nucleus was unambiguously associated with the lineage-specific marker were scored as positive. The total number of BrdU-labeled cells per hippocampal granule cell layer and subgranule zone was determined using diaminobenzadine stained tissues. In a separate series, the total number of ED1-labeled cells per dentate gyrus was also determined using diaminobenzadine stained tissue. Stained BrdU-positive nuclei or ED1-positive cells were scored under light microscopy using Microbrightfield Stereo Investigator software and the Fractionator method. Overestimation was corrected using the Abercrombie method for nuclei with empirically determined average diameter of 13 μm within a 40 μm section.
In general terms: Incorporation of labelled thymidine or its analogues reports DNA synthesis.

Setting [4] is: indomethacin 2.5 mg/kg i.p. twice each day with LPS.
[5] abbreviates: LPS 1 mg/Kg i.p. once, sacrifice on 7th day.

Entries after “also recorded” stand apart in the source; their conditions may differ.

Consider `COc1ccc2c(c1)c(CC(=O)O)c(C)n2C(=O)c1ccc(Cl)cc1` [indomethacin], for which, in the data set with hippocampal neurogenesis [1] (indomethacin, non-irradiated), the “effect on cell fate in non-irradiated rats” value was “no effect”. Besides, the “effect on CD11b/NG2+ infiltrating peripheral monocytes” value in the data set with hippocampal neurogenesis [1] (irradiated, indomethacin 2.5 mg/Kg orally every 12 hours) is “particularly effective at decreasing; also recorded: significantly reduced”. For the same compound, in the data set on hippocampal neurogenesis [1] (irradiated, indomethacin-treated (untreated irradiated 15%)), the “proportion of proliferative cells adopting a neuronal fate” value was determined as 37%. The “total newborn hippocampal neurons” value in the data set on hippocampal neurogenesis [1] (irradiated, indomethacin-treated (untreated irradiated 125±25)) was 360±68 newborn neurons. The “total BrdU+ proliferative cells per neurogenic region of the dentate gyrus” value in the data set with hippocampal neurogenesis [1] (irradiated, indomethacin-treated (untreated irradiated 828±135)) worked out at 958±136 proliferative cells. In data set [2], this compound had a mortality of 100%. Also, in the data set with hippocampal neurogenesis [3] (setting [4]), the “effect on density of activated microglia (ED1+) after LPS” value is reported as “decreases this inflammatory response” and the “effect on distance from BrdU+ nucleus to nearest vessel after LPS” value is on record as “restores the vascular association”. Also, in the data set with hippocampal neurogenesis [3] (indomethacin 2.5 mg/kg i.p. twice each day, concurrently with LPS), the “effect on LPS-induced inhibition of neurogenesis” value was “completely blocked; also recorded: restores neurogenesis”. For the same compound, in the data set with hippocampal neurogenesis [3] (indomethacin 2.5 mg/kg i.p. twice each day, no LPS), the “effect on neurogenesis in control animals (drug alone)” value is given as “no effect”.
Consider lipopolysaccharide [LPS], for which, in the data set with hippocampal neurogenesis [3] (setting [5]), the “decrease in hippocampal neurogenesis (proportion of non-microglial BrdU+ cells co-expressing Dcx)” value came out at 35% and the “increase in the density of activated microglia (CD68/ED1-positive) in the dentate gyrus” value came to 240%.
